Assay [1] deals with T1, human M4 receptor (Homo sapiens, UniProt P08173).
T1 sequence (P08173 1-479): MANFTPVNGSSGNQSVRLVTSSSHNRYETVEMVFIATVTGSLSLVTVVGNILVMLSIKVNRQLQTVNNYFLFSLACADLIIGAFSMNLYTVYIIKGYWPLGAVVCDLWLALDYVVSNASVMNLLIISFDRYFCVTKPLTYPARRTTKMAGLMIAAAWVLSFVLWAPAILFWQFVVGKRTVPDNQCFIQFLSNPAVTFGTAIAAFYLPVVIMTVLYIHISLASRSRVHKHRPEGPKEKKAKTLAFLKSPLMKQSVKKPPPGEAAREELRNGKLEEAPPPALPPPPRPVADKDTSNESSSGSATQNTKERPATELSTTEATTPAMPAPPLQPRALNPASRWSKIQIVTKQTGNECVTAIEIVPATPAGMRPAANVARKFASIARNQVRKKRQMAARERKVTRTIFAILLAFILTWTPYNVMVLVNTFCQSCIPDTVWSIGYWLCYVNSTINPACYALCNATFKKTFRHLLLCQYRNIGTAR
Nature of the assay: cAMP assay for M4 positive allosteric modulators (M4 PAM cAMP assay). To be noted: Table 1; CHO-K1 cells expressing human M4; forskolin 7.5 μM + acetylcholine EC20 (0.2 nM). Also noted: expressed in transfected cells; host or cells: CHO-K1. The class given is cell-based. Here is the method:
The potency of M4 PAMs was determined using a cell-based cyclic adenosine monophosphate assay. The assay was performed with CHO-Kl cells stably expressing untagged human M4 receptor and cAMP was quantified using the Nano-TRF Detection Assay kit (Roche, Cat. No. 05214386) as described in the kit instructions. The cells were grown in Ham's F-12 Nutrient mix supplemented with 10% FBS and 200 μg/ml geneticin until they reached 80% confluency. The cells were washed with PBS, detached with accutase and resuspended in assay buffer consisting of HBSS and 0.1% BSA. They were then seeded in black 384-well plates (Corning, Cat. No. 3764) at a density of 20,000 cells/20 μl per well until the addition of compounds.
Test compounds were serially diluted 1:2 in 100% DMSO and spotted in 384-well plates at 0.5 μl/well. The compounds were then diluted in water containing IBMX (Sigma, Cat. No. 17018) and a sample (5 μl) was added to the cells for 15 minutes at 37° C./5% CO2. After this incubation the cells were stimulated with a combination of forskolin (7.5 μM) and acetylcholine EC20 (0.2 nM) in assay buffer for 30 minutes at 37° C./5% CO2. The assay was stopped by adding cAMP detection mix (15 μl/well, containing detergents for cell lysis) for one hour at RT.
The test plates were read using a SpectraMax i3x reader (Molecular Devices). The exported raw data was used to calculate the FRET signal based on the P-factor as per cAMP kit instructions. The data was normalized to the activity of acetylcholine plus forskolin, with 2 nM of acetylcholine plus 7.5 μM forskolin defined as 100% activity. Dose response curves were fitted to the percent activity data of the compounds using a sigmoidal dose response model (XLfit, IDBS) and the data were reported as EC50 and percent efficacy.

Assay [2] has as its target T1, human M4 receptor. As to the kind of experiment: Calcium flux assay using fluorescent imaging (M4 PAM FLIPR assay). It counts as cell-based. Further details: expressed in transfected cells; host or cells: CHO (monoclonal line, clone 2). To be noted: Table 1; CHO cells expressing human M4+Gqi5; acetylcholine EC20. Here is the method: CHO cells were transfected with expression plasmid encoding the human M4 receptor and a Gqi5 construct to redirect Gi signaling to calcium. Stable cells were cloned by limiting dilution to yield a monoclonal cell line expressing human M4+Gqi5 (clone 2). The stable cells were grown in DMEM containing 10% FBS, 200 ug/ml Geneticin and 800 ug/ml Hygromycin at 37° C. in a 10% CO2 incubator at 95% humidity.
Calcium Flux Assay Using Fluorescent Imaging (“M4 PAM FLIPR” Assay)
On the afternoon before the assay, cells were plated at a density of 50,000 cells/well into black 96 well plates with clear bottoms to yield a confluent monolayer the next day. Hanks balanced salt solution, without phenol red, containing 20 mM HEPES (pH 7.3) and 2.5 mM probenecid (assay buffer) was prepared fresh for each experiment. Compound dilutions were made using a Beckman Biomek 2000 laboratory automation workstation, in assay buffer. The dye-loading buffer consisted of a final concentration of 2 μM Fluo-4-AM (dissolved in DMSO and pluronic acid) and 65 μg/ml amidoblack in assay buffer. The existing culture media was removed from the wells and 100 μl of the dye-loading buffer was added to each well and incubated for approximately 90 min at 37° C. in a 5% CO2 incubator at 95% humidity.
Calcium flux in the dye-loaded cells was measured with the fluorescence reader Hamamatsu FDSS 7000. To test compounds as agonists, compound addition (25 μl) was made 10 s into the fluorescent measurements and fluorescent response was recorded for 3 minutes. The fluorescence data was expressed as percentage of the fluorescence obtained by an EC100 concentration (3 μM) of the endogenous full agonist acetylcholine. Each test compound concentration-response curve was constructed using a four parameter logistic equation in Microsoft Excel XLFit as follows:
Y=Minimum+((Maximum−Minimum)/(1+10^(LogEC50−X)nH)).
The concentration of agonist that produced a half-maximal response is represented by the EC50 value. Maximum and minimum are the maximum and minimum fluorescence signal in % respectively. nH is the Hill slope.
To measure positive allosteric modulator activity 25 μl of an EC20 concentration of the endogenous agonist acetylcholine is added to the cells already pre-incubated with the test compound for 15 minutes.
The M4 PAM dose response is constructed using the agonist dose-response equation above. The concentration of PAM that produced a half-maximal response is represented by the EC50 value and the maximum signal measured is the PAM efficacy expressed in % of the EC100 (3 μM) acetylcholine response. • cAMP Assay for M4 Positive Allosteric Modulators (“M4 PAM cAMP” Assay)
In general terms: A change in cytosolic calcium serves as a functional read-out for many receptors and channels.

By EC50 is commonly meant the concentration giving half of the maximal effect.

Structures are written as SMILES.

`Cc1nc2c(c(C)c1Cl)CN(C(=O)[C@@H]1CCN(c3ccnc(C(F)F)c3)C1)C2` [Example 20, (3-chloro-2,4-dimethyl-5,7-dihydropyrrolo[3,4-b]pyridin-6-yl)-[(3R)-1-[2-(difluoromethyl)-4-pyridyl]pyrrolidin-3-yl]methanone]: the EC50 stood at 80 nM in assay [1] and 181 nM in assay [2].

On to `Cc1nc2c(c(C)c1Cl)CN(C(=O)[C@@H]1CCN(c3ccnc(C(F)(F)F)c3)C1)C2` [Example 21, (3-chloro-2,4-dimethyl-5,7-dihydropyrrolo[3,4-b]pyridin-6-yl)-[(3R)-1-[2-(trifluoromethyl)-4-pyridyl]pyrrolidin-3-yl]methanone], for which the EC50 in assay [1] stood at 131 nM; in assay [2], 550 nM.

Regarding `COc1cc(N2CC[C@@H](C(=O)N3Cc4nc(C)c(Cl)c(C)c4C3)C2)ccn1` [Example 22, (3-chloro-2,4-dimethyl-5,7-dihydropyrrolo[3,4-b]pyridin-6-yl)-[(3R)-1-(2-methoxy-4-pyridyl)pyrrolidin-3-yl]methanone], the concentration giving a half-maximal response (EC50) in assay [1] worked out at 507 nM; in assay [2], 677 nM.

On to `Cc1nc2c(c(C)c1Cl)CN(C(=O)[C@@H]1CCN(c3ccnc(C(F)(F)F)n3)C1)C2` [Example 23, (3-chloro-2,4-dimethyl-5,7-dihydropyrrolo[3,4-b]pyridin-6-yl)-[(3R)-1-[2-(trifluoromethyl)pyrimidin-4-yl]pyrrolidin-3-yl]methanone], for which the concentration for a half-maximal effect (EC50) in assay [1] turned out to be 791 nM; in assay [2] it was 907 nM.

Regarding `Cc1nc2c(c(C)c1Cl)CN(C(=O)[C@@H]1CCN(c3ccnc(C#N)n3)C1)C2` [Example 24, 4-[(3R)-3-(3-chloro-2,4-dimethyl-5,7-dihydropyrrolo[3,4-b]pyridine-6-carbonyl)pyrrolidin-1-yl]pyrimidine-2-carbonitrile], the 50% effective concentration (EC50) amounted to 164 nM in assay [1] and 235 nM in assay [2].

With `COc1nccc(N2CC[C@@H](C(=O)N3Cc4nc(C)c(Cl)c(C)c4C3)C2)n1` [Example 25, (3-chloro-2,4-dimethyl-5,7-dihydropyrrolo[3,4-b]pyridin-6-yl)-[(3R)-1-(2-methoxypyrimidin-4-yl)pyrrolidin-3-yl]methanone], the EC50 came to 4770 nM in assay [1] and 1600 nM in assay [2].

Turning to `Cc1cc(N2CC[C@@H](C(=O)N3Cc4nc(C)c(Cl)c(C)c4C3)C2)ncn1` [Example 26, (3-chloro-2,4-dimethyl-5,7-dihydropyrrolo[3,4-b]pyridin-6-yl)-[(3R)-1-(6-methylpyrimidin-4-yl)pyrrolidin-3-yl]methanone], the EC50 was 120 nM in assay [1] and 166 nM in assay [2].

On to `Cc1nc2c(c(C)c1Cl)CN(C(=O)[C@@H]1CCN(c3cc(C(F)(F)F)ncn3)C1)C2` [Example 27, (3-chloro-2,4-dimethyl-5,7-dihydropyrrolo[3,4-b]pyridin-6-yl)-[(3R)-1-[6-(trifluoromethyl)pyrimidin-4-yl]pyrrolidin-3-yl]methanone], for which the concentration giving a half-maximal response (EC50) was 230 nM in assay [1] and 330 nM in assay [2].

Regarding `Cc1nc2c(c(C)c1Cl)CN(C(=O)[C@@H]1CCN(c3cc(C4CC4)ncn3)C1)C2` [Example 28, (3-chloro-2,4-dimethyl-5,7-dihydropyrrolo[3,4-b]pyridin-6-yl)-[(3R)-1-(6-cyclopropylpyrimidin-4-yl)pyrrolidin-3-yl]methanone], the concentration for a half-maximal effect (EC50) in assay [1] turned out to be 259 nM; in assay [2], 350 nM.

On to `COc1cc(N2CC[C@@H](C(=O)N3Cc4nc(C)c(Cl)c(C)c4C3)C2)ncn1` [Example 29, (3-chloro-2,4-dimethyl-5,7-dihydropyrrolo[3,4-b]pyridin-6-yl)-[(3R)-1-(6-methoxypyrimidin-4-yl)pyrrolidin-3-yl]methanone], for which the EC50 in assay [1] amounted to 951 nM; in assay [2], 591 nM.

`Cc1nc2c(c(C)c1Cl)CN(C(=O)[C@@H]1CCN(c3cncnc3)C1)C2` [Example 30, (3-chloro-2,4-dimethyl-5,7-dihydropyrrolo[3,4-b]pyridin-6-yl)-[(3R)-1-pyrimidin-5-ylpyrrolidin-3-yl]methanone]: the half-maximal effective concentration (EC50) amounted to 65 nM in assay [1] and 59 nM in assay [2].

Regarding `Cc1ncc(N2CC[C@@H](C(=O)N3Cc4nc(C)c(Cl)c(C)c4C3)C2)cn1` [Example 31, (3-chloro-2,4-dimethyl-5,7-dihydropyrrolo[3,4-b]pyridin-6-yl)-[(3R)-1-(2-methylpyrimidin-5-yl)pyrrolidin-3-yl]methanone], the 50% effective concentration (EC50) in assay [1] came to 482 nM; in assay [2] it was 388 nM.

With `Cc1nc2c(c(C)c1Cl)CN(C(=O)[C@@H]1CCN(c3cnc(C(F)(F)F)nc3)C1)C2` [Example 32, (3-chloro-2,4-dimethyl-5,7-dihydropyrrolo[3,4-b]pyridin-6-yl)-[(3R)-1-[2-(trifluoromethyl)pyrimidin-5-yl]pyrrolidin-3-yl]methanone], the EC50 was determined as 1940 nM in assay [1] and 1950 nM in assay [2].

With `COc1ncc(N2CC[C@@H](C(=O)N3Cc4nc(C)c(Cl)c(C)c4C3)C2)cn1` [Example 33, (3-chloro-2,4-dimethyl-5,7-dihydropyrrolo[3,4-b]pyridin-6-yl)-[(3R)-1-(2-methoxypyrimidin-5-yl)pyrrolidin-3-yl]methanone], the concentration giving a half-maximal response (EC50) in assay [1] was found to be 242 nM; in assay [2], 2370 nM.

For the compound `Cc1nc2c(c(C)c1Cl)CN(C(=O)[C@@H]1CCN(c3cnc(C4COC4)nc3)C1)C2` [Example 34, (3-chloro-2,4-dimethyl-5,7-dihydropyrrolo[3,4-b]pyridin-6-yl)-[(3R)-1-[2-(oxetan-3-yl)pyrimidin-5-yl]pyrrolidin-3-yl]methanone], the concentration giving a half-maximal response (EC50) in assay [1] was found to be 603 nM; in assay [2], 575 nM.

For `CNc1ncc(N2CC[C@@H](C(=O)N3Cc4nc(C)c(Cl)c(C)c4C3)C2)cn1` [Example 35, (3-chloro-2,4-dimethyl-5,7-dihydropyrrolo[3,4-b]pyridin-6-yl)-[(3R)-1-[2-(methylamino)pyrimidin-5-yl]pyrrolidin-3-yl]methanone], the concentration giving a half-maximal response (EC50) in assay [1] stood at 817 nM; in assay [2], 1060 nM.

As to `Cc1nc2c(c(C)c1Cl)CN(C(=O)[C@@H]1CCN(c3cnc(N(C)C)nc3)C1)C2` [Example 36, (3-chloro-2,4-dimethyl-5,7-dihydropyrrolo[3,4-b]pyridin-6-yl)-[(3R)-1-[2-(dimethylamino)pyrimidin-5-yl]pyrrolidin-3-yl]methanone], the values for the EC50 in assay [1] and in assay [2] were 1720 nM and 1800 nM, respectively.

These data come from patent US20220289746A1, “PYRROLIDINE DERIVATIVES” (Hoffmann-La Roche Inc., priority 2019, published 2022).
